Results as given in ChEMBL document CHEMBL1770068, “Pharmacophore-based virtual screening and Bayesian model for the identification of potential human leukotriene A4 hydrolase inhibitors” (Eur J Med Chem, 2011).

The compounds below were run against T1, Leukotriene A-4 hydrolase (Homo sapiens, UniProt P09960).
T1 sequence (P09960 whole entry): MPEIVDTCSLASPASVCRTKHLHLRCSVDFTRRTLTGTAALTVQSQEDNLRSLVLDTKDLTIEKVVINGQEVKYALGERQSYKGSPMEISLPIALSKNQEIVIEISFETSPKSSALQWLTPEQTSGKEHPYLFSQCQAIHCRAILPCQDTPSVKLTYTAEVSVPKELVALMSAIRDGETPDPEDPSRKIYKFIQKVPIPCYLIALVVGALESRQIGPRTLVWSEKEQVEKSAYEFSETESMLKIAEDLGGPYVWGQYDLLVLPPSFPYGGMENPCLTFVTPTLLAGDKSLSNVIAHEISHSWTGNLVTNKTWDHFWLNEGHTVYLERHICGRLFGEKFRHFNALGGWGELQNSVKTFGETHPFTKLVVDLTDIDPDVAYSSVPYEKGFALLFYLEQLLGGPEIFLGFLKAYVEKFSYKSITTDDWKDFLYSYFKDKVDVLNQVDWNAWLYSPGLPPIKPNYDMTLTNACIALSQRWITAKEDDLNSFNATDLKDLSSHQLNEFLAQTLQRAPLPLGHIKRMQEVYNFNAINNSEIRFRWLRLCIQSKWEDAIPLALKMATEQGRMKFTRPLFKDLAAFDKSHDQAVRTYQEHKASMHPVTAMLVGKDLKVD
`O=C(CC(Cc1ccccc1)C(=O)N1CCCCC1C(=O)O)NO` (stereo not given) was tested, and the IC50 was 1800 nM.
`CN(CCCOc1ccc(Oc2ccc(-c3ccccc3)cc2)cc1)CCC(=O)O` showed an IC50 of 0.5 nM.
In the case of `O=C(O)c1ccc(CN2CC3CCCC2C(Nc2ccc(Oc4ccc(-c5ccccc5)cc4)cc2)C3)cc1` (stereo not given), the IC50 is reported as 5 nM.
For `O=C(O)c1ccc(CN2CC3CCCC2C(Nc2ccc(Oc4nc5ccccc5s4)cc2)C3)cc1` (stereo not given), the IC50 was 9 nM.
In the case of `CC(NC(=O)C(CC(=O)O)Cc1ccccc1)C(=O)O` (stereo not given), the IC50 is reported as 300 nM.
